In brackets after ≈: the same amount, converted by molar mass. Like-named read-outs stand apart in the source and are kept apart here.
What was measured:
[1] = system: BL21 DE3 Escherichia coli strain; assay type: cell-based
Description: To investigate the antimicrobial effect of lamellin-2K and lamellin-3K, we used the BL21 DE3 Escherichia coli strain with chromosomal resistance to chloramphenicol. The inoculum was grown overnight in the presence of 30 μM chloramphenicol. 0.5 mL of this inoculum was diluted into 50 mL fresh LB medium and grown till the optical density at 600 nm reached 0.5−0.6 indicating an exponential growth phase. Cells were then centrifuged at 3220 g at 4 °C for 20 min, washed twice in the assay medium (MQ water, 10 mM PBS, or 0.15 mM NaCl), then resuspended in 5 mL of the same medium. 10 μL cell suspension was diluted with the peptide solution to a final concentration of 250 μM, 125 μM, 60 μM, 30 μM, 10 μM, 5 μM, 1 μM and 0 μM (control) in 100 μl volume and incubated for 2 h in sterile, low-bind, U-bottom 96-well microplates (Greiner Bio-One, Hungary) with oxygen penetrating lid at 37 °C, at continuous shaking in a BioTek Synergy Mx plate reader. Aliquots from the wells were taken for the quantification of bacterial viability on LB agar plates after incubation at 37 °C for 16 h to obtain CFU/mL data. Treatments were performed in three biological replicates, each of which in three technical replicates.
Supplementary Figure 26: Antibacterial activity of 2K and 3K in the presence and absence of phosphate ions. a) Growth inhibition curves. Exponentially growing E. coli BL21 shaker cultures were exposed to the peptides at 37 °C in various media for 120 min. Treatments were performed in three biological replicates, each of which in three technical replicates. Data represent mean and error bars represent SEM. Data points are connected to guide the eye. b) Viability curves calculated from growth inhibition data in (a). Smooth lines are sigmoid fits to […]
Supplementary Table 6: Antimicrobial activity of 2K and 3K in various media. […]
* IC values are calculated from sigmoid fits to the viability vs. log(c) data points.
All errors are standard errors. […]

[2] = ANS binding fluorescence (assembly formation); assay type: physicochemical; conditions: 125 μM peptide, 2.5 μM ANS, mean of 3
Description: Fluorescence spectra were recorded using a JASCO FP-8500 spectrofluorometer with an excitation and emission bandwidth of 10 nm and 20 nm, respectively. Three accumulations were measured each time. The 8-anilino-1-naphthalenesulfonic acid (ANS) fluorophore was excited at 388 nm and the emission was recorded from 410 to 600 nm. Binding assays were performed using 125 μM peptide (50 μL) and 2.5 μM ANS. Spectra were corrected for those of the corresponding peptide solutions. page 11: Supplementary Figure 8: ANS binding capacity is higher for 3K and in phosphate media. ANS binding of 2K and 3K (125 μM) were tested in the indicated media using the ANS probe at 2.5 μM. The emission intensities at the maxima were read, and values were normalized for that of unbound ANS. Gray line highlights the reference signal of free ANS. In all tested media, higher ANS binding was detected for 3K over 2K. […] Error bars represent the standard deviation of the mean for three independent experiment sets. 11 (1 picture or pasted object on this page, not shown here)

[3] = system: MonoMac 6 human monocytic cells; assay type: cell-based; conditions: 2 h, AlamarBlue, mean ± SEM, n = 4
Description: To evaluate the cytotoxicity of the compounds, AlamarBlue viability assay was performed on MonoMac 6 human monocytic cells (DSMZ no.: ACC 124, Braunschweig, Germany). […] Cells were maintained as an adherent culture in RPMI-1640 media (Lonza, Basel), supplemented with 10% FCS, L-glutamine (2 mM) and penicillin/streptomycin (50 IU/mL and 50 μg/mL) at 37 °C in a humidified atmosphere containing 5% CO2. On the day of the experiment, cells were washed twice with serum-free RPMI or with TRIS-HCl buffer (0.1 M, pH = 7.4) and plated in 96-well flat-bottom tissue culture plates (Sarstedt) (20,000 cells). 250 μM of the lamellin-3K was dissolved and serially diluted (125 μM, 62.5 μM, 31.25 μM, 15.63 μM, 7.81 μM, 3.91 μM, 1.95 μM) in the corresponding assay medium and added to the cells. The final concentration range was between 1.95 and 250 μM and the final volume was 100 μL. […] Following a 2 h of incubation, the fluorescence was measured at λEx = 530/30 and λEm = 610/10 nm using a Synergy H4 multi-mode microplate reader (BioTek). The percent of viability was calculated compared to untreated control wells. […] IC50 values were calculated from the dose-response curves, after fitting with sigmoidal funcion using the GraphPad Prism software package. […]
parallel experiments and error bars represent SEM. The viability percentage was calculated relative to the untreated […]

physchem = assay type: physicochemical; conditions: aqueous buffer
Description: For assignment purposes, appropriate amounts of lyophilized solid lamellin-2K (or lamellin-3K, respectively) were dissolved in H2O to prepare ~1 mM solutions, followed by 15 min sonication and addition of 10% D2O. For monitoring the effects of different solvents, the lyophilized lamellin-2K and lamellin-3K were dissolved in PBS, sonicated for 30 min, further on 10% D2O was added. For 2K, the concentration of the lamellin was ~250 μM and the solution contained PBS. […] After each addition, the solution was sonicated for 30 min. All samples were measured at 298 K. […]
Supplementary Figure 7: a) and b) Overlay of 1D 1H spectra in water (c = 1 mM, dark colour) and in PBS (light colour) for 2K (green) and 3K (blue), respectively. Concentration in PBS was ~ 250 µM for 2K and ~ 20 µM for 3K. c) and d) Regions of overlaid 1H-1H TOCSY (green) and 1H-1H ROESY (red) for 2K, indicating sequential connectivities. e) Variation of the 3K concentration during PBS titration determined from the integration of leucine […]

[4] = 10 mM PBS, 2 h at 37 °C, CFU on LB agar, sigmoid fit, ± standard error, 3 biological replicates
[5] = NaCl (0.15 mM [sic] NaCl), 2 h at 37 °C, CFU on LB agar, sigmoid fit, ± standard error, 3 biological replicates

ANS fluorescence, Mean ([2]; H2O) [arb. units]	ANS fluorescence, Mean ([2]; NaCl) [arb. units]	ANS fluorescence, Mean ([2]; PBS) [arb. units]	ANS fluorescence, Mean ([2]; phosphate) [arb. units]	IC50 ([1]; 10 mM PBS, 2 h at 37 °C, CFU on LB agar, sigmoid fit, ± standard error, 3 biological replicates, read-out: IC50) [µM]	IC50 ([1]; BL21, 2 h) [µM]	IC50 ([1]; MQ water (phosphate-free), 2 h at 37 °C, CFU on LB agar, sigmoid fit, ± standard error, 3 biological replicates, read-out: IC50) [µM]	solubility thermodynamic at 30 min (physchem) [µM]	Compound	IC20 [1, 4] [µM]	IC80 [1, 4] [µM]	IC80 ([1]; MQ water, 2 h at 37 °C, CFU on LB agar, sigmoid fit to viability vs log(c), ± standard error, 3 biological replicates) [µM]	IC20 ([1]; MQ water, 2 h at 37 °C, CFU on LB agar, sigmoid fit, ± standard error, 3 biological replicates) [µM]	IC20 [1, 5] [µM]	IC80 [1, 5] [µM]	IC50 ([3]; RPMI (phosphate-containing, 5.6 mM Na2HPO4)) [µM]	IC50 ([3]; Tris-HCl (phosphate-free, 0.1 M, pH 7.4)) [µM]
1.52	1.24	5.15	11.66					CCCC(=O)N[C@H](CC(=O)N[C@@H](CC(=O)N[C@@H](CCCCN)CC(=O)N[C@@H](CC(=O)N[C@@H](CCCCN)CC(=O)N[C@@H](CC(N)=O)CC(C)C)CC(C)C)CC(C)C)CC(C)C [2K]	46.1 ± 4.07	77.7 ± 3.93	11.2 ± 0.373	7.06 ± 0.343	54 ± 12.2	74.2 ± 10.8		
3.21	7.78	14.27	19.27	11.6 ± 1.5	5.44 ± 0.91	1.24	~20 (≈ 23 µg/mL)	CCCC(=O)N[C@H](CC(=O)N[C@@H](CC(=O)N[C@@H](CCCCN)CC(=O)N[C@@H](CC(=O)N[C@@H](CCCCN)CC(=O)N[C@@H](CC(=O)N[C@@H](CCCCN)CC(=O)N[C@@H](CC(N)=O)CC(C)C)CC(C)C)CC(C)C)CC(C)C)CC(C)C [3K]	9.27 ± 1.45	14.6 ± 1.46			4.22 ± 0.82	7 ± 1.02	126 ± 7.1	112 ± 8.4
